# In patent US20230404971A1, “Combination Comprising Abemaciclib and 6-(2,4-Dichlorophenyl)-5-[4-[(3S)-1-(3-Fluoropropyl)Pyrrolidin-3-yl]Oxyphenyl]-8,9-Dihydro-7H-Benzo[7]Annulene-2-Carboxylic Acid” (Sanofi, priority 2020, published 2023):
# How the values were obtained:
# [1] = tested on: MCF7-Y537S human breast cancer cell line xenograft; test: Anti-tumor efficacy against subcutaneous MCF7-Y537S human breast cancer cell line xenograft in female nude mice; type: in vivo, female BALB/c nude mice; parameters: key to Biological Interpretation: Active: ΔT/ΔC≤40% is considered as therapeutically active; Very active: ΔT/ΔC<0% is considered as tumor regression (very active); Inactive: ΔT/ΔC>40% is considered as therapeutically inactive; settings: for Tumor volume changes from baseline, Median: n = 7
# Procedure: In the present study, the anti-tumor efficacy of 6-(2,4-dichlorophenyl)-5-[4-[(3S)-1-(3-fluoropropyl)pyrrolidin-3-yl]oxyphenyl]-8,9-dihydro-7H-benzo[7]annulene-2-carboxylic acid (“compound (1)”), combined with abemaciclib, was investigated after 22 days treatment against a subcutaneous MCF7-Y537S human breast cancer cell line xenograft in female nude mice.
# The treated groups included compound (1) at 20 mg/kg alone, abemaciclib at 70 mg/kg alone, and the combination of compound (1) and abemaciclib at the same dose and regime,
# Compound (1) was orally dosed twice a day (BID) and abemaciclib was orally dosed once a day (QD) for 22 days. Anti-tumor efficacy was evaluated by tumor volume measurement.
# Female BALB/c nude mice were obtained from Shanghai Sino-British SIPPR/BK Laboratory Animal Co., LTD (Shanghai, CHINA). Animals were allowed to acclimate for at least four days before the study enrollment. Mice were 6 to 8 weeks old and weighed between 18 and 24 grams at the beginning of the treatments. These animals were housed under conditions outlined in the guidelines approved by the Institutional Animal Care and Use Committee (IACUC) of WuXi AppTec following the guidance of the Association for Assessment and Accreditation of Laboratory Animal Care (AAALAC).
# Parental MCF7 cells were obtained from the American Type Culture Collection (ATCC® HTB-22™). MCF7-Y537S (ESR1) cell line was MCF7 cells expressing the ER.Y537S variant that was generated by Sanofi Biology Discovery Group. Y537S mutation was introduced in ESR1 construct (GenBank NM_000125.3) by site directed mutagenesis (Toy W. et al., Cancer Discovery, 2017, 7, 277-287). The construct was transfected in MCF7 cells which were selected for their growth in absence of estradiol. MCF-Y537S is an ESR1 mutation that confers estrogen-independent activity to ERα (Estrogen Receptor alpha) and contributes to endocrine resistant disease (Robinson D. R. et al., Nat Genet., 2013, 45 (12), 1446-1451). The cells were grown in Eagle's Minimum Essential Medium (EMEM) supplemented with 10% fetal bovine serum (FBS), human Insulin, in 5% CO2 at 37° C. The cells were harvested in 0.25% Trypsin EDTA and washed by Phosphate Buffered Saline (PBS) and re-suspended in PBS with 75% Matrigel. The cells (20×10^6 cells/per mouse) were subcutaneously (SC) implanted into the right flank of female nude mice.
# When the MCF7-Y537S tumors were established, the tumors were reserved as tumor stocks for fragment implantation. The tumors were serially propagated through fragment tissue transplantation subcutaneously. The fragment tumor tissues were subcutaneously implanted into the right flank of female nude mice. 28 mice were assigned in this experiment.
# Abemaciclib (Manufacturer: Sanofi; Lot number: VAC.DLE20.006.1) was formulated in 40% SBE-β-CD in HCl 0.1N pH 3.0. Compound (1) was prepared in 5% Solutol HS15 (purchased from Sigma) at pH 3.0.
# Dose volume for compound (1) and abemaciclib for oral administration: 10 ml/kg by oral gavage.
# Doses: compound (1) at 20 mg/kg and abemaciclib at 70 mg/kg in the above volume.
# The animals required for experiment (plus extra) were pooled and implanted with MCF7-Y537S tumor fragment tissues. On day 0 (20 days post implantation), the mice were pooled and randomly distributed to the treatment and control groups (7 mice per group), where median tumor volumes for each group was 173 mm^3. Treatments of compound (1) and abemaciclib were initiated on day 0. Compound (1) was orally administered at 20 mg/kg BID (8 hours apart) and abemaciclib was orally administered at 70 mg/kg QD, for 22 days. Animal body weight was assessed daily.
# The dosages are expressed in mg/kg and based on daily body weight per animal. Vehicle treated animals were used as controls. Mice were checked daily and adverse clinical reactions noted. Individual mice were weighed daily until the end of the experiment. Mice would be euthanized when morbid or weight loss ≥20% was observed. […]
# [2] = Tolerability (body weight, deaths) in the MCF7-Y537S xenograft study; type: in vivo
# Procedure: The animals required for experiment (plus extra) were pooled and implanted with MCF7-Y537S tumor fragment tissues. […] Animal body weight was assessed daily.
# The dosages are expressed in mg/kg and based on daily body weight per animal. Vehicle treated animals were used as controls. Mice were checked daily and adverse clinical reactions noted. Individual mice were weighed daily until the end of the experiment. Mice would be euthanized when morbid or weight loss ≥20% was observed. Tumors were measured with a caliper twice weekly until final sacrifice. When a tumor size reached approximately 2000 mm^3 or when there are animal health issues (40% area of a tumor ulcerated), animals would be euthanized and date of death recorded. Solid tumor volumes were estimated from two-dimensional tumor measurements and calculated according to the following equation: […]
# Animal body weight included the tumor weight.
# [3] = day 22, PO for 22 days, compound (1) 20 mg/kg BID, abemaciclib 70 mg/kg QD, alone or combined
structure (smiles),measurement,setting,value
"CCN1CCN(Cc2ccc(Nc3ncc(F)c(-c4cc(F)c5nc(C)n(C(C)C)c5c4)n3)nc2)CC1 [Abemaciclib, N-{5-[(4-ethylpiperazin-1-yl)methyl]pyridin-2-yl}-5-fluoro-4-[4-fluoro-2-methyl-1-(propan-2-yl)-1H-benzimidazol-6-yl]pyrimidin-2-amine]","Tumor volume changes from baseline, Median","[1]; Day 4, compound (1) 20 mg/kg BID, abemaciclib 70 mg/kg QD, alone or combined",9.0 mm^3
same,"Tumor volume changes from baseline, Median","[1]; Day 8, compound (1) 20 mg/kg BID, abemaciclib 70 mg/kg QD, alone or combined",40.0 mm^3
same,"Tumor volume changes from baseline, Median","[1]; Day 11, compound (1) 20 mg/kg BID, abemaciclib 70 mg/kg QD, alone or combined",83.0 mm^3
same,"Tumor volume changes from baseline, Median","[1]; Day 15, compound (1) 20 mg/kg BID, abemaciclib 70 mg/kg QD, alone or combined",119.0 mm^3
same,"Tumor volume changes from baseline, Median","[1]; Day 18, compound (1) 20 mg/kg BID, abemaciclib 70 mg/kg QD, alone or combined",150.0 mm^3
same,"Tumor volume changes from baseline, Median","[1]; Day 22, compound (1) 20 mg/kg BID, abemaciclib 70 mg/kg QD, alone or combined",199.0 mm^3
same,Regressions Complete,"[1]; animals with complete regression / animals in group, 22 days treatment",0/7
same,Regressions Partial,"[1]; animals with partial regression / animals in group, 22 days treatment",0/7
same,Biological Interpretation,[1]; based on ΔT/ΔC at day 22,Active
same,Median % of regressions on day 22,[1]; [3],0%
same,ΔT/ΔC in % at day 22,[1]; [3],19%
same,Anti-tumor effect on tumor growth (in words),"[1]; day 22, versus control",statistically significant anti-tumor efficacy
same,Body weight loss,"[2]; compound (1) 20 mg/kg BID, abemaciclib 70 mg/kg QD, alone or combined, 22 days, PO",no significant body weight loss
same,Unscheduled death (Day of death),"[2]; deaths / animals in group, 22 days treatment",0/7
